Measured values from US10611729B2, “Farnesoid X receptor antagonists” (City of Hope, priority 2014, dated 2020).
Where two headings read alike, the source gives them in different places.

Experiments:
FXR [1] = molecular target: T1, FXR (Homo sapiens, UniProt Q96RI1); experiment: FXR TR-FRET binding assay (DY246 fluorescent probe); details: for inhibition at 0.164 µM: at 164 nM; for IC50: mean ± SE
T1 sequence (Q96RI1 262-486 limits assumed): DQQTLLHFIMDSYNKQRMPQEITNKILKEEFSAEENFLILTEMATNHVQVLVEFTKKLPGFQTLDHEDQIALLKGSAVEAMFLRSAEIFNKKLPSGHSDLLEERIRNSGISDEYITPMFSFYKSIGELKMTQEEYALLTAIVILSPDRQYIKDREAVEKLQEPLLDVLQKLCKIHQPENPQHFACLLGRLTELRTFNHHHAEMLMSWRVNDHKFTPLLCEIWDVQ
Description: The FXR TR-FRET binding assay was performed as previously described^23 with modifications. […] The plate was spun down after a brief shake and incubated at room temperature for 20 min. The TR-FRET emission signals at 520 nm and 490 nm for each well was then collected using a PHERAstar plate reader (BMG LABTECH, Cary, N.C.) with an excitation wavelength of 337 nm, 100-μs delay time, and 200-μs integration time. The 520 nm/490 nm ratio from each well was then calculated. […] The % inhibition of tested chemicals at given concentration was calculated based on negative and positive controls using equation 1.

[2] = system: GeneBLAzer FXR-UAS-bla HEK 293T cells; details: for GB FXR Cell Cyto % Inh.: human, 16 h, 40 μM
Description: (§2) To examine if certain chemical antagonistic effect was caused by cytotoxicity, the same GeneBLAzer FXR cells were used to perform cytotoxicity assay. This assay was set up like the FXR agonistic assay, with the exception of signal reading. Instead of detecting the reporter activities, CellTiter-Glo® assay was used to detect cell viability. DMSO with cells or without cells group were served as negative (0% Inhibition) or positive (100% Inhibition), respectively.
(§3) Cytotoxicity assays were performed side-by-side with the FXR agonistic assay using GeneBLAzer FXR-UAS-bla HEK 293T cells with CellTiter-Glo® Luminescent Cell Viability Assay reagent (Promega). Briefly, cells were maintained in DMEM supplemented with 10% dialyzed FBS, 0.1 mM non-essential amino acids, 25 mM HEPES, 100 μg/ml of hygromycin B, 100 μg/ml of zeocin, 100 units/ml penicillin and 100 μg/ml streptomycin in regular tissue culture flasks. […] As a positive control, the wells in column 24 of each plate were filled with 30 μL assay medium along with 0.5% DMSO. The final DMSO concentration was 0.5% in each assay well. After a 16 h incubation in a cell culture incubator at 37° C., the cell plates were cooled at room temperature for 20 min and then CellTiter-Glo® reagent 20 μl/well was added followed by an incubation for 20 min in the dark to allow the development of optimal luminescence signal. The luminescence signal from each well in plates was collected with an Envision plate reader equipped with Ultra-sensitive Luminescence detector. The DMSO group and no cell group served as negative (0% activation) and positive (100% activation) controls, respectively. The % inhibition was calculated using equation 4 below.

FXR [3] = molecular target: T1, FXR; experiment: GeneBLAzer FXR cell-based agonistic assay; parameters: the Gal4 DBD was fused to the LBD of FXR in this assay; host or cells: GeneBLAzer FXR-UAS-bla HEK 293T cells; details: without GW4064, 16 h
Description: The reporter assays were performed after a16 h incubation.
(§1) FXR transactivation assays were performed using GeneBLAzer FXR-UAS-bla HEK 293T cells (Invitrogen). Cells were maintained according to the manufacturer's instructions. […] Plates were then incubated in dark for 90 min at room temperature before measuring the fluorescent emissions at 460 nm and 535 nm (using excitation at 400 nm) with an Envision plate reader with bottom read capacity. After background signal subtraction for individual emission channels, emission signals at 460 and 535 nm from each well were used to determine the ratio of 460 nm/535 nm. […] The % activation was calculated using equation 2.

FXR [4] = molecular target: T1, FXR; experiment: GeneBLAzer FXR cell-based antagonistic assay (in presence of 400 nM GW4064); parameters: the Gal4 DBD was fused to the LBD of FXR in this assay; host or cells: GeneBLAzer FXR-UAS-bla HEK 293T cells; details: for IC50: with 400 nM GW4064, read-out: GB FXR Cell Anta. IC50
Description: A GeneBLAzer FXR cell-based assay was used to investigate the cellular activities of the 1,3,4-trisubstituted-pyrazol-4-carboxamide analogs. The assay detects the levels of a […] reporter controlled by a promoter containing the binding site of the DNA binding domain (DBD) of the GAL4 transcription factor; the Gal4 DBD was fused to the LBD of FXR in this assay.^35
as §1
The % inhibition was calculated using equation 3.

[5] = system: GeneBLAzer FXR-UAS-bla HEK 293T cells; experiment: Cytotoxicity assay in GeneBLAzer FXR cells (CellTiter-Glo); details: class symbol NT
Description: as §2, §3

[6] = read-out: FXR TR-FRET Binding % Inh.
[7] = read-out: GB FXR Cell Anta. % Inh.

Compound	IC50 (FXR [1]) [µM]	inhibition at 40 µM (FXR [4]; [7]) [%]	IC50 (FXR [4]) [µM]	GB FXR Cell Cyto % Inh. [2]	inhibition at 40 µM (FXR [1]; [6]) [%]	activity against FXR at 1 μM (FXR [4])	other results
COc1cccc(Cn2cc(C(=O)Nc3ccc(C)c(S(=O)(=O)N4CCOCC4)c3)c(-c3ccc(C)cc3)n2)c1 [Compound 4j, 1-(3-Methoxybenzyl)-N-(4-methyl-3-(morpholinosulfonyl)phenyl)-3-(p-tolyl)-1H-pyrazole-4-carboxamide]	0.0075	98.9 ± 4.3	0.469 ± 0.0084	–	–	–	inhibition at 0.164 µM (FXR [1]; [6]): 130 ± 5.4%; fold more potent than Z26476908 in FXR TR-FRET binding assay (FXR [1]; ratio of IC50 values): 5.26 fold; cytotoxicity [2]: no cytotoxicity; FXR agonistic activity (FXR [3]): no FXR agonistic activity; FXR antagonistic activity, SAR statement in words (FXR [4]): enhanced antagonistic activity; fold more potent than Z26476908 in antagonistic assay (FXR [4]; ratio of IC50 values): 4.59 fold
Cc1ccc(NC(=O)c2cn(C(C)C)nc2-c2ccc(C(F)(F)F)cc2)cc1S(=O)(=O)N1CCOCC1 [Compound 4p, 1-Isopropyl-N-(4-methyl-3-(morpholinosulfonyl)phenyl)-3-(4-(trifluoromethyl)phenyl)-1H-pyrazole-4-carboxamide]	0.0775 ± 0.0037	100 ± 3.7	1.95 ± 0.28	19.5 ± 1.1%	–	–	inhibition at 4.4 µM (FXR [1]; [6]): 133 ± 5.3%
Cc1ccc(-c2nn(C(C)C)cc2C(=O)N(C)c2ccc(C)c(S(=O)(=O)N3CCOCC3)c2)cc1 [Compound 8-1, 1-Isopropyl-N-methyl-N-(4-methyl-3-(morpholinosulfonyl)phenyl)-3-(p-tolyl)-1H-pyrazole-4-carboxamide]	0.489 ± 0.0212	86.4 ± 2.8	16.2	15.0 ± 0.7%	133 ± 6.2	weak activity	–
COc1cccc(Cn2cc(C(=O)N(C)c3ccc(C)c(S(=O)(=O)N4CCOCC4)c3)c(C(C)C)n2)c1 [Compound 8-2, 3-Isopropyl-1-(3-methoxybenzyl)-N-methyl-N-(4-methyl-3-(morpholinosulfonyl)phenyl)-1H-pyrazole-4-carboxamide]	5.33 ± 0.24	–	–	13.5 ± 0.4 (40 μM) %	80.3 ± 5.2	weak activity	inhibition at 20 µM (FXR [4]; [7]): 2.4 ± 0.1%
COc1cccc(Cn2cc(CNc3ccc(C)c(S(=O)(=O)N4CCOCC4)c3)c(C(C)C)n2)c1 [Compound 9-2, N-((3-Isopropyl-1-(3-methoxybenzyl)-1H-pyrazol-4-yl)methyl)-4-methyl-3-(morpholinosulfonyl)aniline]	2.31 ± 0.32	64.8 ± 1.9	27.8 ± 1.54	13.9 ± 0.6 (40 μM) %	–	–	inhibition at 4.4 µM (FXR [1]; [6]): 72.5 ± 2.7%
CC(C)c1onc(-c2c(Cl)cccc2Cl)c1COc1ccc(/C=C/c2cccc(C(=O)O)c2)c(Cl)c1 [GW4064]	–	–	–	–	–	–	GB FXR Cell Cyto % Inh. [5]: NT (NT: Not toxic (toxicity less than 5%))
C[C@H](CCC(=O)O)[C@H]1CC[C@H]2[C@@H]3CC[C@@H]4C[C@H](O)CC[C@]4(C)[C@H]3CC[C@]12C [Lithocholic Acid, lithocholic acid]	–	–	–	–	–	–	GB FXR Cell Cyto % Inh. [5]: NT (NT: Not toxic (toxicity less than 5%))

More lines, in order of falling IC50 (FXR [1]), values ahead:

IC50 (FXR [1]) [µM]	inhibition at 40 µM (FXR [4]; [7]) [%]	IC50 (FXR [4]) [µM]	GB FXR Cell Cyto % Inh. [2]	inhibition at 40 µM (FXR [1]; [6]) [%]	activity against FXR at 1 μM (FXR [4])	Compound	other results
3.81 ± 0.2	23.8 ± 0.4	–	19.7 ± 0.4 (40 μM) %	69.7 ± 3.5	weak activity	COc1cccc(Cn2cc(C(=O)N(C)c3ccc(C)c(S(=O)(=O)N4CCOCC4)c3)c(-c3cccc(OC)c3)n2)c1 [Compound 8-3, 1-(3-Methoxybenzyl)-3-(3-methoxyphenyl)-N-methyl-N-(4-methyl-3-(morpholinosulfonyl)phenyl)-1H-pyrazole-4-carboxamide]	–
2.04 ± 0.02	36.8 ± 0.3	–	10.5 ± 0.3%	–	–	Cc1ccc(-c2nn(C(C)C)cc2CNc2ccc(C)c(S(=O)(=O)N3CCOCC3)c2)cc1 [Compound 9-1, N-((1-Isopropyl-3-(p-tolyl)-1H-pyrazol-4-yl)methyl)-4-methyl-3-(morpholinosulfonyl)aniline]	inhibition at 13.3 µM (FXR [1]; at 13.3 μM, read-out: FXR TR-FRET Binding % Inh.): 99.5 ± 2.6%
0.047 ± 0.0051	77.2 ± 2.2	2.62	17.9 ± 0.5%	–	–	Cc1ccc(-c2nn(-c3ccccc3)cc2C(=O)Nc2ccc(C)c(S(=O)(=O)N3CCOCC3)c2)cc1 [Compound Z26476908, reference compound]	inhibition at 0.164 µM (FXR [1]; [6]): 100 ± 5.2%
